From US12083196B2, “Personal cleansing compositions with surfactants for increased foam performance” (ECOLAB USA INC., priority 2020, dated 2024)

Test: SITA Foam Analyzer foam decay
Type: physicochemical
Settings: single surfactant, 1%, FIG. 2
Text: The reagents used below include: • Alpha-Step® PC-48 is a C10-16 sodium methyl 2-sulfolaurate and disodium 2-sulfolaurate available from Stepan; • Stepan-Mild® L3 is a predominantly C12 reaction product of lauryl alcohol and lactic acid available from Stepan; • SLES is sodium laureth sulfate; • Cola® Teric is an amphoteric sultaine available from Colonial Chemical, Inc.; • Glucopon® […] is an alkyl polyglycoside available from BASF Corporation; • Suga® Nate is a sodium laurylglucosides hydrooxypropylsulfonate available from Colonial Chemicals, Inc; • Lathanol® LAL is a sodium lauryl sulfoacetate available from Stepan. […] To rename sample measurement files, right click on the open sample window, and click “save” to rename your sample file • 8) If an error occurs at any point with your sample, the measurement reading can be stopped by clicking the red square “Stop icon” or by pressing the large red button on the machine • 9) Organize the graph generated with the icons in the fourth section of the tool bar: create new plot, add/remove data from plot, change axis properties, and view properties. […] Right click to rename the plot, insert or remove the plot and display the foam buildup, foam decay, or both The foam decay time was also measured. […]

Question: With sodium laureth sulfate [SLES] as the substance, how does the “loss of foaming over 10 minutes” value read?
Answer: about 20 mL
